Key:
[1] = In vivo biodistribution of LNP-encapsulated PepTACs; design: species or system SKH-1 hairless mice; conditions: Cy5.5-labeled, 5 mg/kg IV, confocal imaging of liver sections
HeLa cells = experiment: Confocal imaging of subcellular localization; assay type: cell-based, human; conditions: free fluorescein-labelled peptide without LNP, 8 hours, live cell confocal
[2] = Encapsulation efficiency of the LNPs; assay type: physicochemical; conditions: optimized LNP formulation, ^CRPepTAC or peptide ligand alone; Figure 4B

Row | LNP Encapsulation Efficiency, % [2] [%] | Substance | PepTAC signal in liver sections after 24 hours [1] | uptake / subcellular localization (HeLa cells)
1 | – | IYP^OHAL-Ahx-KDVLSEKEKKLEEYKQKLARV [^CRPepTAC] | no signal | no uptake or cellular association
2 | 15 | KDVLSEKEKKLEEYKQKLARV [CL] | – | –

Reference: publication doi:10.1101/2024.03.17.584721v1 (bioRxiv, 2024)
